“Also recorded” adds a separate entry of the source. Like-named read-outs stand apart in the source and are kept apart here.

Experimental findings from patent US9365830B2, “Agents and methods for inhibiting human pluripotent stem cell growth” (VIACYTE, INC., priority 2010, dated 2016) are described below.

The subject of experiment [1] is hESCs. The experiment can be described thus: Secondary screen, lowest effective dose on hESCs. Type of experiment: cell-based, human. To be noted: lowest concentration that elicited cytotoxicity, range 0.1 to 50 μM, read-out: ED hESC (lowest effective dose). How it is done:
To expand the number of potential candidate hESC cytotoxic and inhibitory compounds, the complete LOPAC1280™ collection (containing 1,280 compounds) was screened. In the primary screen, cytotoxicity was tested on undifferentiated hESCs (about 3×10^4 BG01 cells) in 16 standard 96-well trays, in DC-HAIF defined medium on growth factor-reduced MATRIGEL™ diluted 1:200, which were fed daily (FIG. 7A). 10 μM of each compound was added to the hESCs one day after plating, and the cells were cultured for an additional 2 days. Plates were then fixed and stained for alkaline phosphatase (AP) to identify relative decreases in proliferation or growth of hESCs (as reduced AP staining), indicative of lower proportions of hESCs. See the circled wells in FIG. 7A.
Using a range of different concentrations from 0.1 to 50 μM, the forty compounds in Table 6 were re-screened (secondary screen) using hESCS and NPCs. The effective dose (ED) was defined as the lowest concentration of a compound that elicited cytotoxicity during the secondary screen. […] The darker wells were indicative of the increased numbers or percentages of proliferating or growing pluripotent stem cells in the wells. In addition, these 40 compounds were screened on differentiating definitive endoderm (DE) cell cultures in 96-well plate impedance assays (described above) to determine which of these compounds were not cytotoxic to definitive endoderm cells at the lowest effective dose on either hESC or NPC. […] See “ACEA DE” column in Table 6.

Experiment [2] concerns differentiating Stage 1 cultures (definitive endoderm). The experiment can be described thus: Secondary screen on differentiating Stage 1 cultures in 6-well trays. The class given is cell-based, human. To be noted: compounds added to differentiating Stage 1 cultures. The text has this: The impedance assay on the hESCs using the compounds in Table 4 above gave greater than twenty (20) hits. However, the ideal candidate compound of the present invention should not only be inhibitory or cytotoxic to human pluripotent stem cells, such as hESCs or hIPSCs, but should at the same time have no effect on cell viability of differentiated or differentiating cell populations including Stage 1, 2, 3, 4 and 5 type cells cultures (definitive endoderm, foregut endoderm, posterior foregut, pancreatic endoderm and endocrine cells, respectively). […] Approximately 3×10^4 hES cells were plated per well and grown for 24 hrs in DC-HAIF defined medium (i.e. StemPro® hESC SFM medium (Life Technologies, Carlsbad, Calif.). Stage 1 or definitive endoderm differentiation was then induced by changing the medium and culturing in RPMI, 100 ng/mL Activin A, and 10 ng/mL of FGF2. […] of GSK-3 beta Inhibitor 15 (Calbiochem #361558) as added to the culture for the first 24 hours of differentiation only. 10 μM of each of the candidate compounds were added about 48 hours or 2 days after differentiation was induced (see FIGS. 3 C & D, large arrowhead), and the cells were cultured for an additional 2 days.
Secondary Screen with Selected Compounds. A secondary screen using 9 of the 10 candidate compounds in Table 5 was performed by adding the compounds to differentiating Stage 1 cultures (definitive endoderm) as described above. For the secondary screen, larger standard 6-well trays were used instead of the RT-CEAS 96-well culture plates used in primary screens employing impedance assays. Only 9 of the 10 compounds in Table 5 were tested because the 10th was not available in sufficient quantity at the time the assays were performed. In the larger, 6-well trays, 5 of the 9 compounds listed in Table 5 had no effect on viability of differentiating cells or differentiated definitive endoderm. […] This assay also confirmed that the viability of differentiating cells and differentiated definitive endoderm cells was apparently consistent regardless of the numbers of cells tested, or the size, volume, or source of the culture vessel.

Regarding “22, 23-dihydroavermectin B1a+22,23-dihydroavermectin B1b [Ivermectin]”, the minimal effective concentration in experiment [1] was 5 µM.

For `CN(N=O)c1cc(O)ccc1O` [Dephostatin], the “Viability of Definitive Endoderm” value in experiment [2] is “capable of growth and proliferation; also recorded: Viable”.

Turning to `CN(C)S(=O)(=O)c1ccc2c(c1)/C(=C/c1cc3c([nH]1)CCCC3)C(=O)N2` [SU 6656], in experiment [2], the “Viability of Definitive Endoderm” value was “capable of growth and proliferation; also recorded: Viable”. In addition, the minimal effective concentration in experiment [1] (Homo sapiens) turned out to be 25 µM.

As to `N#C/C(=C\c1ccc(O)c(O)c1)C(=O)NCc1ccccc1` [Tyrphostin AG 490], the “Viability of Definitive Endoderm” value in experiment [2] was “capable of growth and proliferation; also recorded: Viable”. For the same compound, in experiment [1], the minimal effective concentration was 25 µM.
